Strand notation (5' to 3'): a small letter for the sugar, then the base; units joined by * are phosphorothioate-linked, units joined directly phosphodiester-linked; [ ] holds rarer units or linkages, { } end groups; capitals alone tell only the bases. k = constrained ethyl (cEt); [5mC] = 5-methylcytosine; d = 2'-deoxy (DNA)
The substances below were run on human SMAD7 mRNA (assay: Antisense inhibition of human SMAD7 mRNA expression in Hep3B cells by 3-10-3 cEt gapmers, 10,000 nM, electroporation (Example 2)). Details: Hep3B cells, 10,000 nM antisense oligonucleotide, electroporation, approximately 24 hours, RT-PCR primer probe set RTS5062, relative to untreated control cells.
Format: cell-based
Method in brief: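 Hep3B cells (20,000 per well) were electroporated with 10,000 nM 16-mer 3-10-3 cEt gapmer (phosphorothioate, 5-methylcytosine). After about 24 h, SMAD7 mRNA was quantified by qRT-PCR with primer probe set RTS5062, normalised to RIBOGREEN total RNA, and expressed as percent inhibition versus untreated cells.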
In the case of “772597 (k[5mC]*kA*kG*dT*dA*dT*dG*d[5mC]*d[5mC]*dA*d[5mC]*d[5mC]*dA*k[5mC]*kG*k[5mC]; antisense) [compound 772597]”, the “% Inhibition” value is reported as 0%.
For “799990 (kT*kT*kG*d[5mC]*dA*d[5mC]*d[5mC]*dT*dG*dG*d[5mC]*dA*dA*k[5mC]*k[5mC]*kT; antisense) [compound 799990]”, the “% Inhibition” value was 0%.
“799838 (antisense kT*kT*kG*d[5mC]*dA*d[5mC]*d[5mC]*d[5mC]*d[5mC]*d[5mC]*dA*dT*dA*kA*k[5mC]*kT) [compound 799838]” was tested, and the “% Inhibition” value was 2%.
With “800090 (antisense k[5mC]*kA*k[5mC]*d[5mC]*dT*dA*dT*dG*d[5mC]*dG*dA*dT*dG*kG*kT*k[5mC]) [compound 800090]” the “% Inhibition” value was 0%.
“798854 (kT*kA*k[5mC]*dA*d[5mC]*d[5mC]*d[5mC]*dA*d[5mC]*dA*d[5mC]*dA*d[5mC]*k[5mC]*kA*kT; antisense) [compound 798854]” was tested, and the “% Inhibition” value was 25%.

Same assay, conditions: Hep3B cells, electroporation with 10,000 nM antisense oligonucleotide, approximately 24 hours, RTS5062, percent inhibition of SMAD7 mRNA relative to untreated control cells
“799765 (antisense kA*kA*kG*d[5mC]*dA*d[5mC]*dG*d[5mC]*dT*dA*dA*dG*dG*kA*kA*kA) [compound 799765]” was tested, and the “% Inhibition” value was 23%.
With “799273 (antisense kA*kT*k[5mC]*dA*dT*dT*dA*d[5mC]*dT*d[5mC]*dG*dA*dG*kT*k[5mC]*kA) [compound 799273]” the “% Inhibition” value was 41%.
“799785 (k[5mC]*kT*k[5mC]*d[5mC]*dA*dG*dG*dT*dA*dG*dA*dG*dG*k[5mC]*kA*kA; antisense) [compound 799785]” was tested, and the “% Inhibition” value was 0%.
For “799609 (k[5mC]*k[5mC]*k[5mC]*d[5mC]*dA*dT*dG*dG*dA*dA*d[5mC]*dG*dA*kT*k[5mC]*kA; antisense) [compound 799609]”, the “% Inhibition” value was 41%.
For “799670 (antisense kT*k[5mC]*kT*dG*dA*dG*dA*d[5mC]*dT*dA*dT*dG*dA*k[5mC]*kA*kG) [compound 799670]”, the “% Inhibition” value was 51%.

Same assay, conditions: Hep3B cells, electroporation with 10,000 nM antisense oligonucleotide, approximately 24 hours, SMAD7 mRNA by RT-PCR (RTS5062), relative to untreated control cells
In the case of “830056 (kG*kT*kT*dT*dT*dG*dG*dG*dT*dG*dA*dG*dT*kA*kA*k[5mC]; antisense) [compound 830056]”, the “% Inhibition” value is reported as 40%.
In the case of “799375 (antisense kG*k[5mC]*k[5mC]*dT*dA*dT*dA*d[5mC]*dT*dT*d[5mC]*dT*dG*kA*kA*kA) [compound 799375]”, the “% Inhibition” value is reported as 10%.
With “799446 (antisense kG*kA*k[5mC]*d[5mC]*dT*dA*dA*dT*d[5mC]*dT*d[5mC]*dT*dT*kT*k[5mC]*kA) [compound 799446]” the “% Inhibition” value was 48%.
In the case of “830150 (antisense k[5mC]*kA*kG*dT*dG*dG*dT*dG*dA*d[5mC]*d[5mC]*dT*d[5mC]*k[5mC]*k[5mC]*kT) [compound 830150]”, the “% Inhibition” value is reported as 51%.
For “799885 (k[5mC]*k[5mC]*k[5mC]*d[5mC]*dA*d[5mC]*dA*dG*dA*dT*d[5mC]*d[5mC]*dA*kA*k[5mC]*kT; antisense) [compound 799885]”, the “% Inhibition” value was 0%.
“798700 (antisense k[5mC]*k[5mC]*k[5mC]*d[5mC]*dG*d[5mC]*dA*dG*d[5mC]*dT*d[5mC]*dG*d[5mC]*k[5mC]*kT*k[5mC]) [compound 798700]” was tested, and the “% Inhibition” value was 52%.
“830209 (kA*k[5mC]*k[5mC]*dG*dG*dA*dA*dG*dT*d[5mC]*dT*dT*dG*kT*kA*kT; antisense) [compound 830209]” was tested, and the “% Inhibition” value was 31%.
With “799485 (antisense kA*kG*k[5mC]*d[5mC]*dA*d[5mC]*dT*d[5mC]*d[5mC]*d[5mC]*d[5mC]*dG*d[5mC]*k[5mC]*kA*k[5mC]) [compound 799485]” the “% Inhibition” value was 0%.

Same assay, conditions: Hep3B cells, electroporation with 10,000 nM antisense oligonucleotide, approximately 24 hours, primer probe set RTS5062, relative to untreated control cells
In the case of “798955 (antisense kT*kT*k[5mC]*dA*dT*dA*dA*dG*d[5mC]*dT*dA*dT*dT*kT*k[5mC]*kT) [compound 798955]”, the “% Inhibition” value is reported as 15%.
“799483 (antisense k[5mC]*kA*kA*dA*dG*dG*dA*dA*dA*dA*dG*d[5mC]*d[5mC]*kG*kG*kG) [compound 799483]” was tested, and the “% inhibition of SMAD7 mRNA expression” value was 35%.
With “799249 (antisense kG*k[5mC]*kG*dG*d[5mC]*d[5mC]*dA*d[5mC]*dG*dA*d[5mC]*dA*dG*kT*kA*kT) [compound 799249]” the “% inhibition of SMAD7 mRNA expression” value was 26%.
For “799176 (antisense kT*kG*kT*dT*dA*dA*dA*dG*dT*d[5mC]*dT*dA*dA*kA*k[5mC]*kA) [compound 799176]”, the “% Inhibition” value was 0%.
For “799180 (antisense kG*kA*kA*dA*dA*dA*dT*dA*dG*d[5mC]*dT*dT*dA*kT*kG*kT) [compound 799180]”, the “% Inhibition” value was 20%.
In the case of “798779 (kA*kT*kT*d[5mC]*dA*d[5mC]*dA*dG*d[5mC]*dA*dA*d[5mC]*dA*k[5mC]*kA*kG; antisense) [compound 798779]”, the “% inhibition of SMAD7 mRNA expression” value is reported as 31%.
For “798763 (kG*kA*kG*dT*dA*dG*dG*dA*d[5mC]*dG*dA*dG*dG*kG*k[5mC]*kG; antisense) [compound 798763]”, the “% inhibition of SMAD7 mRNA expression” value was 53%.
For “798778 (k[5mC]*kA*k[5mC]*dA*dG*d[5mC]*dA*dA*d[5mC]*dA*d[5mC]*dA*dG*k[5mC]*k[5mC]*kT; antisense) [compound 798778]”, the “% inhibition of SMAD7 mRNA expression” value was 64%.
For “799068 (antisense kG*kA*k[5mC]*dA*dA*dG*dG*dA*dT*dG*dA*dA*dA*kA*kT*kA) [compound 799068]”, the “% inhibition of SMAD7 mRNA expression” value was 49%.
With “799099 (antisense kA*kA*kA*dA*dA*d[5mC]*d[5mC]*dT*dG*dA*dT*dG*dT*k[5mC]*kA*k[5mC]) [compound 799099]” the “% Inhibition” value was 44%.

Same assay, conditions: Hep3B cells, electroporation, 10,000 nM antisense oligonucleotide, approximately 24 hours, RTS5062, relative to untreated control cells
With “799719 (antisense k[5mC]*k[5mC]*kT*dT*dT*d[5mC]*dT*dA*d[5mC]*dT*dA*dG*dA*kA*kA*kA) [compound 799719]” the “% inhibition of SMAD7 mRNA expression” value was 19%.
For “799779 (kT*kA*kA*dA*d[5mC]*dA*dA*dA*d[5mC]*d[5mC]*dA*d[5mC]*dA*kG*kG*kG; antisense) [compound 799779]”, the “% inhibition of SMAD7 mRNA expression” value was 19%.
“799815 (antisense k[5mC]*kT*k[5mC]*dT*dT*dG*dA*dT*dG*dA*dT*d[5mC]*d[5mC]*kT*k[5mC]*kA) [compound 799815]” was tested, and the “% inhibition of SMAD7 mRNA expression” value was 68%.

Same assay, conditions: SMAD7 mRNA, Hep3B cells, 10,000 nM antisense oligonucleotide, electroporation, approximately 24 hours, primer probe set RTS5062, relative to untreated control cells
In the case of “829731 (antisense kA*kG*k[5mC]*dA*dG*dG*d[5mC]*dG*d[5mC]*dA*dG*dG*d[5mC]*kG*kA*k[5mC]) [compound 829731]”, the “% Inhibition” value is reported as 50%.
For “790855 (kA*k[5mC]*k[5mC]*dT*dT*dT*dT*d[5mC]*d[5mC]*dG*dG*dT*dA*kT*kT*kT; antisense) [compound 790855]”, the “% Inhibition” value was 40%.
With “800771 (antisense k[5mC]*k[5mC]*k[5mC]*dG*d[5mC]*dA*dG*d[5mC]*dT*d[5mC]*dG*d[5mC]*d[5mC]*kT*k[5mC]*k[5mC]) [compound 800771]” the “% Inhibition” value was 46%.
In the case of “800837 (antisense kA*kA*kA*d[5mC]*d[5mC]*dT*dT*dT*dG*dT*dA*dG*dT*kT*kA*kG) [compound 800837]”, the “% Inhibition” value is reported as 41%.

Same assay, conditions: SMAD7 mRNA, Hep3B cells, electroporation with 10,000 nM antisense oligonucleotide, approximately 24 hours, primer probe set RTS5062, relative to untreated control cells
In the case of “829871 (antisense kG*kT*k[5mC]*d[5mC]*dA*dG*dT*dG*dT*dG*dG*d[5mC]*dG*kG*kA*k[5mC]) [compound 829871]”, the “% Inhibition” value is reported as 1%.
In the case of “829847 (antisense kT*kG*kT*d[5mC]*d[5mC]*dG*dA*dA*dT*dT*dG*dA*dG*k[5mC]*kT*kG) [compound 829847]”, the “% Inhibition” value is reported as 64%.
In the case of “829987 (k[5mC]*k[5mC]*kG*d[5mC]*dG*dA*dG*dG*d[5mC]*dG*dG*dT*dG*kA*kT*kT; antisense) [compound 829987]”, the “% Inhibition” value is reported as 6%.
With “829967 (k[5mC]*k[5mC]*k[5mC]*d[5mC]*d[5mC]*dA*dG*dG*dG*dA*dA*dT*dG*k[5mC]*k[5mC]*k[5mC]; antisense) [compound 829967]” the “% Inhibition” value was 0%.

Source: patent publication US10517889B2, “Modulators of SMAD7 expression” (Ionis Pharmaceuticals, Inc., priority 2017, dated 2019)
